Measured values as given in ChEMBL document CHEMBL4393657, “Tetrazole hybrids and their antifungal activities” (2019).
In brackets after ≈: the same amount, converted by molar mass. Each block holds one compound with its values, some of them ahead of it.

Key:
Format in all cases: functional
Candida albicans [1] = assay: Antifungal activity against Candida albicans assessed as reduction in fungal cell growth incubated for 48 hrs by broth microdilution method
Aspergillus niger [2] = assay: Antifungal activity against Aspergillus niger assessed as reduction in fungal cell growth incubated for 48 hrs by broth microdilution method
Talaromyces marneffei = assay: Antifungal activity against Penicillium marneffei assessed as reduction in fungal cell growth incubated for 3 to 4 days by disk diffusion method
Aspergillus fumigatus [3] = assay: Antifungal activity against Aspergillus fumigatus NCIM 902 assessed as reduction in fungal cell growth incubated for 3 to 4 days by disk diffusion method
Aspergillus flavus [4] = assay: Antifungal activity against Aspergillus flavus NCIM 524 assessed as reduction in fungal cell growth incubated for 3 to 4 days by disk diffusion method
[5] = system: Trichophyton mentagrophytes; assay: Antifungal activity against Trichophyton mentagrophytes assessed as reduction in fungal cell growth incubated for 3 to 4 days by disk diffusion method
Candida albicans [6] = assay: Antifungal activity against Candida albicans NCCS 3471 assessed as inhibition zone at 500 ug/ml by disk diffusion method; details: read-out: IZ
Aspergillus niger [7] = assay: Antifungal activity against Aspergillus niger NCCS 1196 assessed as inhibition zone at 500 ug/ml by disk diffusion method; details: read-out: IZ
Mucor indicus = assay: Antifungal activity against Mucor indicus
Candida albicans [8] = assay: Antifungal activity against Candida albicans
Aspergillus flavus [9] = assay: Antifungal activity against Aspergillus flavus
Aspergillus niger [10] = assay: Antifungal activity against Aspergillus niger
Rhizopus arrhizus = assay: Antifungal activity against Rhizopus arrhizus
Nakaseomyces glabratus [11] = assay: Antifungal activity against Candida glabrata NCIM 3236 assessed as reduction in fungal cell growth incubated for 24 hrs by broth microdilution method; details: NCIM 3236, 24 h
Candida albicans [12] = assay: Antifungal activity against Candida albicans MTCC 227 assessed as reduction in fungal cell growth incubated for 24 hrs by broth microdilution method; details: MTCC 227, 24 h
Candida tropicalis [13] = assay: Potency index, ratio for MIC of fluconazole to MIC of compound for Antifungal activity against Candida tropicalis NCIM 3110 assessed as reduction in fungal cell growth incubated for 24 hrs by broth microdilution method
Nakaseomyces glabratus [14] = assay: Potency index, ratio for MIC of fluconazole to MIC of compound for antifungal activity against Candida glabrata NCIM 3236 assessed as reduction in fungal cell growth incubated for 24 hrs by broth microdilution method
Candida tropicalis [15] = assay: Antifungal activity against Candida tropicalis NCIM 3110 assessed as reduction in fungal cell growth incubated for 48 hrs by broth microdilution method; details: NCIM 3110, 48 h
Candida albicans [16] = assay: Antifungal activity against Candida albicans assessed as inhibition zone at 125 ug/ml by disk diffusion method; details: read-out: IZ
Candida albicans [17] = assay: Antifungal activity against Candida albicans assessed as reduction in fungal cell growth incubated for 24 hrs by broth microdilution method
Candida albicans [18] = assay: Antifungal activity against Candida albicans ATCC 885653 assessed as inhibition zone at 100 ug/ml incubated for 48 to 72 hrs by agar-diffusion method; details: read-out: IZ
Candida albicans [19] = assay: Antifungal activity against Candida albicans assessed as inhibition zone at 25 ug/ml by disk diffusion method; details: read-out: IZ
Aspergillus fumigatus [20] = assay: Antifungal activity against Aspergillus fumigatus assessed as inhibition zone at 25 ug/ml by disk diffusion method; details: read-out: IZ
Aspergillus flavus [21] = assay: Antifungal activity against Aspergillus flavus assessed as inhibition zone at 25 ug/ml by disk diffusion method; details: read-out: IZ
Aspergillus niger [22] = assay: Antifungal activity against Aspergillus niger assessed as inhibition zone at 25 ug/ml by disk diffusion method; details: read-out: IZ

- MIC (Candida albicans [1]): 50 to 400 µg/mL (≈ 117 to 934 µM)
- MIC (Aspergillus niger [2]): 50 to 400 µg/mL (≈ 117 to 934 µM)
SMILES: O=[N+]([O-])c1cccc(C2c3ccc4ccccc4c3Oc3[nH]c(=S)n4nnnc4c32)c1 (stereo not drawn)

- MIC (Talaromyces marneffei): 6.25 to 50 µg/mL (≈ 17.3 to 139 µM)
- MIC (Aspergillus fumigatus [3]): 6.25 to 50 µg/mL (≈ 17.3 to 139 µM)
- MIC (Aspergillus flavus [4]): 6.25 to 50 µg/mL (≈ 17.3 to 139 µM)
- MIC [5]: 6.25 to 50 µg/mL (≈ 17.3 to 139 µM)
SMILES: c1ccc(-n2nnnc2SCCCSc2nnnn2C2CC2)cc1

SMILES: CC(=O)N1N=C(Cn2cc(-c3nn(-c4ccncc4)cc3-c3nnnn3-c3ccc(C(F)(F)F)cc3)c3cc(Cl)ccc32)OC1(C)c1ccc(C(F)(F)F)cc1 (stereo not drawn)
- zone of inhibition at 500 µg/mL (Candida albicans [6]): 11 to 20 mm
- zone of inhibition at 500 µg/mL (Aspergillus niger [7]): 11 to 20 mm

- MIC (Mucor indicus): 6.25 to 100 µg/mL (≈ 12.1 to 193 µM)
- MIC (Candida albicans [8]): 6.25 to 100 µg/mL (≈ 12.1 to 193 µM)
- MIC (Aspergillus flavus [9]): 6.25 to 100 µg/mL (≈ 12.1 to 193 µM)
- MIC (Aspergillus niger [10]): 6.25 to 100 µg/mL (≈ 12.1 to 193 µM)
- MIC (Rhizopus arrhizus): 6.25 to 100 µg/mL (≈ 12.1 to 193 µM)
SMILES: O=C(O)c1cn(C2CC2)c2nc(N3CCN(CC(=O)c4nnnn4-c4ccccc4)CC3)c(F)cc2c1=O

- MIC (Nakaseomyces glabratus [11]): 12.5 to 50 µg/mL (≈ 35.5 to 142 µM)
- MIC (Candida albicans [12]): 12.5 to 50 µg/mL (≈ 35.5 to 142 µM)
- MIC (Candida tropicalis [15]): 12.5 to 50 µg/mL (≈ 35.5 to 142 µM)
SMILES: Cc1ccc2oc(-c3ccc(F)cc3)c(OCc3nnn[nH]3)c(=O)c2c1
- Ratio (Candida tropicalis [13]): 8 - 64
- Ratio (Nakaseomyces glabratus [14]): 8 - 64

- MIC (Mucor indicus): 6.25 to 100 µg/mL (≈ 10.5 to 167 µM)
- MIC (Candida albicans [8]): 6.25 to 100 µg/mL (≈ 10.5 to 167 µM)
- MIC (Aspergillus flavus [9]): 6.25 to 100 µg/mL (≈ 10.5 to 167 µM)
- MIC (Aspergillus niger [10]): 6.25 to 100 µg/mL (≈ 10.5 to 167 µM)
- MIC (Rhizopus arrhizus): 6.25 to 100 µg/mL (≈ 10.5 to 167 µM)
SMILES: O=C(O)c1cn(C2CC2)c2nc(N3CCN(CC(=O)c4nnnn4-c4ccc(Br)cc4)CC3)c(F)cc2c1=O

- MIC (Candida albicans [1]): 50 to 400 µg/mL (≈ 130 to 1040 µM)
- MIC (Aspergillus niger [2]): 50 to 400 µg/mL (≈ 130 to 1040 µM)
SMILES: S=c1[nH]c2c(c3nnnn13)C(c1ccccc1)c1ccc3ccccc3c1O2 (stereo not drawn)

SMILES: O=C(O)c1cccc(/N=C/c2cc3cc(-c4nc5ccccc5[nH]4)ccc3n3nnnc23)c1
- zone of inhibition at 125 µg/mL (Candida albicans [16]): 7 to 12 mm

- MIC (Candida albicans [17]): 62.5 µg/mL (≈ 182 µM)
SMILES: FC(F)(F)c1cc(-c2ccc(Br)cc2)nc2nnnn12

SMILES: O=[N+]([O-])c1ccc(/N=C/c2cc3cc(-c4nc5ccccc5[nH]4)ccc3n3nnnc23)cc1
- zone of inhibition at 125 µg/mL (Candida albicans [16]): 7 to 12 mm

- MIC (Mucor indicus): 6.25 to 100 µg/mL (≈ 11.7 to 188 µM)
- MIC (Candida albicans [8]): 6.25 to 100 µg/mL (≈ 11.7 to 188 µM)
- MIC (Aspergillus flavus [9]): 6.25 to 100 µg/mL (≈ 11.7 to 188 µM)
- MIC (Aspergillus niger [10]): 6.25 to 100 µg/mL (≈ 11.7 to 188 µM)
- MIC (Rhizopus arrhizus): 6.25 to 100 µg/mL (≈ 11.7 to 188 µM)
SMILES: Cc1ccc(-n2nnnc2C(=O)CN2CCN(c3nc4c(cc3F)c(=O)c(C(=O)O)cn4C3CC3)CC2)cc1

- MIC (Mucor indicus): 6.25 to 100 µg/mL (≈ 11.6 to 186 µM)
- MIC (Candida albicans [8]): 6.25 to 100 µg/mL (≈ 11.6 to 186 µM)
- MIC (Aspergillus flavus [9]): 6.25 to 100 µg/mL (≈ 11.6 to 186 µM)
- MIC (Aspergillus niger [10]): 6.25 µg/mL (≈ 11.6 µM)
- MIC (Rhizopus arrhizus): 6.25 to 100 µg/mL (≈ 11.6 to 186 µM)
SMILES: O=C(O)c1cn(C2CC2)c2nc(N3CCN(CC(=O)c4nnnn4-c4ccc(F)cc4)CC3)c(F)cc2c1=O

SMILES: COc1ccc(C(=O)CSc2nc3ccccc3c3nnnn23)cc1
- zone of inhibition at 100 µg/mL (Candida albicans [18]): 6 to 22 mm

SMILES: CNCCSc1nc2ccccc2c2nnnn12
- zone of inhibition at 100 µg/mL (Candida albicans [18]): 6 to 22 mm

SMILES: COc1ccc(C2(C)OC(Cn3cc(-c4nn(-c5ccncc5)cc4-c4nnnn4-c4ccc(C(F)(F)F)cc4)c4cc(Cl)ccc43)=NN2C(C)=O)cc1 (stereo not drawn)
- zone of inhibition at 500 µg/mL (Candida albicans [6]): 11 to 20 mm
- zone of inhibition at 500 µg/mL (Aspergillus niger [7]): 11 to 20 mm

- MIC (Candida albicans [1]): 50 to 400 µg/mL (≈ 121 to 967 µM)
- MIC (Aspergillus niger [2]): 50 to 400 µg/mL (≈ 121 to 967 µM)
SMILES: COc1ccc(C2c3ccc4ccccc4c3Oc3[nH]c(=S)n4nnnc4c32)cc1 (stereo not drawn)

SMILES: Cc1ccc(OCc2cn(Cc3ccc(-c4ccccc4-c4nnn[nH]4)cc3)nn2)cc1
- zone of inhibition at 25 µg/mL (Candida albicans [19]): 11 to 18 mm
- zone of inhibition at 25 µg/mL (Aspergillus fumigatus [20]): 11 to 18 mm
- zone of inhibition at 25 µg/mL (Aspergillus flavus [21]): 11 to 18 mm
- zone of inhibition at 25 µg/mL (Aspergillus niger [22]): 11 to 18 mm

SMILES: CC(=O)N1N=C(Cn2cc(-c3nn(-c4ccncc4)cc3-c3nnnn3-c3ccc(C(F)(F)F)cc3)c3cc(Cl)ccc32)OC1(C)c1ccccc1 (stereo not drawn)
- zone of inhibition at 500 µg/mL (Candida albicans [6]): 11 to 20 mm
- zone of inhibition at 500 µg/mL (Aspergillus niger [7]): 11 to 20 mm

SMILES: CC(=O)N1N=C(Cn2cc(-c3nn(-c4ccncc4)cc3-c3nnnn3-c3ccc(C(F)(F)F)cc3)c3cc(Cl)ccc32)OC1(C)c1ccc([N+](=O)[O-])cc1 (stereo not drawn)
- zone of inhibition at 500 µg/mL (Candida albicans [6]): 11 to 20 mm
- zone of inhibition at 500 µg/mL (Aspergillus niger [7]): 11 to 20 mm

SMILES: O=C(O)c1ccc(/N=C/c2cc3cc(-c4nc5ccccc5[nH]4)ccc3n3nnnc23)cc1
- zone of inhibition at 125 µg/mL (Candida albicans [16]): 7 to 12 mm

SMILES: Clc1ccc(OCc2cn(Cc3ccc(-c4ccccc4-c4nnn[nH]4)cc3)nn2)cc1
- zone of inhibition at 25 µg/mL (Candida albicans [19]): 11 to 18 mm
- zone of inhibition at 25 µg/mL (Aspergillus fumigatus [20]): 11 to 18 mm
- zone of inhibition at 25 µg/mL (Aspergillus flavus [21]): 11 to 18 mm
- zone of inhibition at 25 µg/mL (Aspergillus niger [22]): 11 to 18 mm

SMILES: NCCSc1nc2ccccc2c2nnnn12
- zone of inhibition at 100 µg/mL (Candida albicans [18]): 6 to 22 mm

SMILES: C(=N\c1ccccc1)/c1cc2cc(-c3nc4ccccc4[nH]3)ccc2n2nnnc12
- zone of inhibition at 125 µg/mL (Candida albicans [16]): 7 to 12 mm

SMILES: c1ccc(OCc2cn(Cc3ccc(-c4ccccc4-c4nnn[nH]4)cc3)nn2)cc1
- zone of inhibition at 25 µg/mL (Candida albicans [19]): 11 to 18 mm
- zone of inhibition at 25 µg/mL (Aspergillus fumigatus [20]): 11 to 18 mm
- zone of inhibition at 25 µg/mL (Aspergillus flavus [21]): 11 to 18 mm
- zone of inhibition at 25 µg/mL (Aspergillus niger [22]): 11 to 18 mm
